Measured values: patent US20250186437A1, “CARBOLINE COMPOUNDS AND USE THEREOF” (PTC Therapeutics, Inc., priority 2021, published 2025)
Counter-ions that a name gives are not always drawn.

Key:
MOLM-13 cells [1] = test: MOLM-13 Uridine Rescue Assay; format: cell-based; settings: Homo sapiens; MOLM-13 cell proliferation with 100 μM Uridine added, 72 Hours of culture
Experimental: The following assay was conducted to measure proliferation of MOLM-13 cells in the presence of each compound studied. This assay was included as an indicator of DHODH inhibition, as growth of MOLM-13 cells is known to depend on synthesis of pyrimidines using the de novo pathway, which can be blocked by inhibition of DHODH. • 1. MOLM-13 cells were cultured in RPMI 1640 medium+10% Fetal Bovine Serum (FBS). Only low passage cells (<20) were used for the compound tests • 2. On day 1, Log-phase growing Molm-13 Cells were counted and diluted to 10^5 cells/mL in RPMI 1640 medium+10% FBS • 3. 100 μL of diluted MOLM-13 cells in 96 well white plates were seeded, for a final density of 10^4 cells/well. • 4. 0.5 μL of pre-diluted 200× compounds or DMSO control was added to each well. The final DMSO concentration was 0.5%. • 5. After 72 Hours of culture at 37° C., 5% CO2, the plates were taken out and cooled to RT, then 50 μL CellTiter-Glo® (Promega) was added, and the composition was mixed at RT for 10 minutes. • 6. The plates were then read by ViewLux (Speed-fast, Gain-High, Bining-1X, 5 seconds).
Several compounds were also tested in a Uridine rescue assay. In the Uridine rescue assay, using the procedure in Example 1 above, an additional plate of MOLM-13 cell cultures was prepared, to which 100 μM of Uridine was added in step 3 of the process.

MOLM-13 cells [2] = test: MOLM-13 Cell Proliferation Assay (indicator of DHODH inhibition); format: cell-based; settings: Homo sapiens, 72 Hours of culture, CellTiter-Glo, no uridine
Procedure, shortened: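 Proliferation readout via CellTiter-Glo luminescence after 72 h compound treatment (37 °C, 5% CO2, 0.5% DMSO) of MOLM-13 cells seeded at 10^4 per well in RPMI 1640/10% FBS, used as a DHODH-inhibition indicator since these cells rely on de novo pyrimidine synthesis.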

Row | SMILES | IC50 (MOLM-13 cells [1]) [nM] | IC50 (MOLM-13 cells [2]) [nM]
1 | Cc1nc(C)nc(N2CCc3c([nH]c4cc(N)c(Cl)cc34)C2c2cnc(N3CCOCC3)nc2)n1 (stereo not drawn) [Compound 320, 6-chloro-2-(4,6-dimethyl-1,3,5-triazin-2-yl)-1-[2-(morpholin-4-yl)pyrimidin-5-yl]-2,3,4,9-tetrahydro-1H-pyrido[3,4-b]indol-7-amine] | 9810 | 11.7
2 | Cc1nc(C)nc(N2CCc3c([nH]c4ccc(Cl)cc34)C2c2ccc(N3CCOCC3)nc2)n1 (stereo not drawn) [Compound 324, 6-chloro-2-(4,6-dimethyl-1,3,5-triazin-2-yl)-1-[6-(morpholin-4-yl)pyridin-3-yl]-2,3,4,9-tetrahydro-1H-pyrido[3,4-b]indole] | 9720 | 13.4
3 | Nc1c(Cl)ccc2[nH]c3c(c12)CCN(c1nccc(C(F)(F)F)n1)C3c1cnc(N2CCOCC2)nc1 (stereo not drawn) [Compound 328, 6-chloro-1-[2-(morpholin-4-yl)pyrimidin-5-yl]-2-[4-(trifluoromethyl)pyrimidin-2-yl]-2,3,4,9-tetrahydro-1H-pyrido[3,4-b]indol-5-amine] | 10500 | 2.9
4 | Cc1ccc(C2c3[nH]c4ccc(N(C)C)cc4c3CCN2c2nccc(C(F)(F)F)n2)c(F)c1F (stereo not drawn) [Compound 330, 1-(2,3-difluoro-4-methylphenyl)-N,N-dimethyl-2-[4-(trifluoromethyl)pyrimidin-2-yl]-2,3,4,9-tetrahydro-1H-pyrido[3,4-b]indol-6-amine] | 11500 | 11.3
5 | Cc1ccc(C2c3[nH]c4ccc(Cl)cc4c3CCN2c2nccc(C(F)(F)F)n2)cc1 (stereo not drawn) [Compound 343, 6-chloro-1-(4-methylphenyl)-2-[4-(trifluoromethyl)pyrimidin-2-yl]-2,3,4,9-tetrahydro-1H-pyrido[3,4-b]indole] | 19800 | 3.3
6 | Cc1nc(C)nc(N2CCc3c([nH]c4c(O)cc(Cl)cc34)C2c2ccc(C)c(F)c2F)n1 (stereo not drawn) [Compound 348, 6-chloro-1-(2,3-difluoro-4-methylphenyl)-2-(4,6-dimethyl-1,3,5-triazin-2-yl)-2,3,4,9-tetrahydro-1H-pyrido[3,4-b]indol-8-ol] | 2000 | 1.2
7 | Cc1cc(C)nc(N2CCc3c([nH]c4ccc(Cl)cc34)C2c2ccc(N3CCOCC3)nc2)n1 (stereo not drawn) [Compound 350, 6-chloro-2-(4,6-dimethylpyrimidin-2-yl)-1-[6-(morpholin-4-yl)pyridin-3-yl]-2,3,4,9-tetrahydro-1H-pyrido[3,4-b]indole] | 14900 | 4.8
8 | Cc1ccnc(N2CCc3c([nH]c4ccc(Cl)cc34)C2c2ccc(N3CCOCC3)nc2)n1 (stereo not drawn) [Compound 352, 6-chloro-2-(4-methylpyrimidin-2-yl)-1-[6-(morpholin-4-yl)pyridin-3-yl]-2,3,4,9-tetrahydro-1H-pyrido[3,4-b]indole] | 6410 | 8.9
9 | N#Cc1ccnc(N2CCc3c([nH]c4ccc(Cl)cc34)C2c2ccc(N3CCOCC3)nc2)n1 (stereo not drawn) [Compound 356, 2-{6-chloro-1-[6-(morpholin-4-yl)pyridin-3-yl]-1,3,4,9-tetrahydro-2H-pyrido[3,4-b]indol-2-yl}pyrimidine-4-carbonitrile] | 6960 | 4.6
10 | FC(F)(F)c1cc(C(F)(F)F)nc(N2CCc3c([nH]c4ccc(Cl)cc34)C2c2cnc(N3CCOCC3)nc2)n1 (stereo not drawn) [Compound 358, 2-[4,6-bis(trifluoromethyl)pyrimidin-2-yl]-6-chloro-1-[2-(morpholin-4-yl)pyrimidin-5-yl]-2,3,4,9-tetrahydro-1H-pyrido[3,4-b]indole formate (1:1)] | 12300 | 0.8
11 | N#Cc1ccnc(N2CCc3c([nH]c4ccc(Cl)cc34)C2c2cnc(N3CCOCC3)nc2)n1 (stereo not drawn) [Compound 359, 2-{6-chloro-1-[2-(morpholin-4-yl)pyrimidin-5-yl]-1,3,4,9-tetrahydro-2H-pyrido[3,4-b]indol-2-yl}pyrimidine-4-carbonitrile] | 5670 | 8
12 | Cc1ccc(C2c3[nH]c4ccc(Cl)cc4c3CCN2c2nccc(C#N)n2)c(F)c1F (stereo not drawn) [Compound 363, 2-[6-chloro-1-(2,3-difluoro-4-methylphenyl)-1,3,4,9-tetrahydro-2H-pyrido[3,4-b]indol-2-yl]pyrimidine-4-carbonitrile] | 10300 | 3.2
13 | CN1CCN(c2ncc(C3c4[nH]c5ccc(Cl)cc5c4CCN3c3nc(C(F)(F)F)cc(C(F)(F)F)n3)cn2)CC1 (stereo not drawn) [Compound 381, 2-[4,6-bis(trifluoromethyl)pyrimidin-2-yl]-6-chloro-1-[2-(4-methylpiperazin-1-yl)pyrimidin-5-yl]-2,3,4,9-tetrahydro-1H-pyrido[3,4-b]indole] | 4290 | 0.7
14 | FC(F)(F)c1nc(N2CCc3c([nH]c4ccc(Cl)cc34)C2c2cnc(N3CCOCC3)nc2)nc(C(F)(F)F)n1 (stereo not drawn) [Compound 388, 2-[4,6-bis(trifluoromethyl)-1,3,5-triazin-2-yl]-6-chloro-1-[2-(morpholin-4-yl)pyrimidin-5-yl]-2,3,4,9-tetrahydro-1H-pyrido[3,4-b]indole] | 6640 | 0.3

Further lines, results first:

Row | IC50 (MOLM-13 cells [1]) [nM] | IC50 (MOLM-13 cells [2]) [nM] | SMILES
15 | 15200 | 1 | Cc1ccc(C2c3[nH]c4ccc(Cl)cc4c3CCN2c2nc(C(F)(F)F)cc(C(F)(F)F)n2)c(F)c1F (stereo not drawn) [Compound 340, 2-[4,6-bis(trifluoromethyl)pyrimidin-2-yl]-6-chloro-1-(2,3-difluoro-4-methylphenyl)-2,3,4,9-tetrahydro-1H-pyrido[3,4-b]indole]
16 | 2770 | 1.1 | Cc1nc(C)nc(N2CCc3c([nH]c4ccc(Cl)cc34)[C@@H]2c2ccc(C)c(F)c2F)n1 [Compound 347, (1S)-6-chloro-1-(2,3-difluoro-4-methylphenyl)-2-(4,6-dimethyl-1,3,5-triazin-2-yl)-2,3,4,9-tetrahydro-1H-pyrido[3,4-b]indole]
17 | 5660 | 11.7 | Cc1ccc(C2c3[nH]c4ccc(Cl)cc4c3CCN2c2nc(C)nc(C)n2)cc1 (stereo not drawn) [Compound 355, 6-chloro-2-(4,6-dimethyl-1,3,5-triazin-2-yl)-1-(4-methylphenyl)-2,3,4,9-tetrahydro-1H-pyrido[3,4-b]indole]
18 | 9300 | 0.6 | FC(F)(F)c1cc(C(F)(F)F)nc(N2CCc3c([nH]c4ccc(Cl)cc34)C2c2ccc(N3CCOCC3)nc2)n1 (stereo not drawn) [Compound 357, 2-[4,6-bis(trifluoromethyl)pyrimidin-2-yl]-6-chloro-1-[6-(morpholin-4-yl)pyridin-3-yl]-2,3,4,9-tetrahydro-1H-pyrido[3,4-b]indole formate (1:1)]
19 | 22100 | 1.8 | Cc1ccc(C2c3[nH]c4ccc(Cl)cc4c3CCN2c2nc(C)cc(C(F)(F)F)n2)cc1 (stereo not drawn) [Compound 361, 6-chloro-1-(4-methylphenyl)-2-[4-methyl-6-(trifluoromethyl)pyrimidin-2-yl]-2,3,4,9-tetrahydro-1H-pyrido[3,4-b]indole]
20 | 6810 | 4.3 | Cc1cc(C#N)nc(N2CCc3c([nH]c4ccc(Cl)cc34)C2c2cnc(N3CCOCC3)nc2)n1 (stereo not drawn) [Compound 362, 2-{6-chloro-1-[2-(morpholin-4-yl)pyrimidin-5-yl]-1,3,4,9-tetrahydro-2H-pyrido[3,4-b]indol-2-yl}-6-methylpyrimidine-4-carbonitrile]
21 | 5020 | 4.5 | CN1CCN(c2ncc(C3c4[nH]c5ccc(Cl)cc5c4CCN3c3nccc(C(F)(F)F)n3)cn2)CC1 (stereo not drawn) [Compound 369, 6-chloro-1-[2-(4-methylpiperazin-1-yl)pyrimidin-5-yl]-2-[4-(trifluoromethyl)pyrimidin-2-yl]-2,3,4,9-tetrahydro-1H-pyrido[3,4-b]indole]
22 | 16400 | 1.6 | Cc1cc(C(F)(F)F)nc(N2CCc3c([nH]c4ccc(Cl)cc34)C2c2ccc(N3CCOCC3)nc2)n1 (stereo not drawn) [Compound 372, 6-chloro-2-[4-methyl-6-(trifluoromethyl)pyrimidin-2-yl]-1-[6-(morpholin-4-yl)pyridin-3-yl]-2,3,4,9-tetrahydro-1H-pyrido[3,4-b]indole]
23 | 8840 | 1.6 | Cc1cc(C(F)(F)F)nc(N2CCc3c([nH]c4ccc(Cl)cc34)C2c2cnc(N3CCOCC3)nc2)n1 (stereo not drawn) [Compound 374, 6-chloro-2-[4-methyl-6-(trifluoromethyl)pyrimidin-2-yl]-1-[2-(morpholin-4-yl)pyrimidin-5-yl]-2,3,4,9-tetrahydro-1H-pyrido[3,4-b]indole]
24 | 7660 | 0.2 | Cc1ccc([C@H]2c3[nH]c4ccc(Cl)cc4c3CCN2c2nc(C(F)(F)F)nc(C(F)(F)F)n2)c(F)c1F [Compound 387, (1S)-2-[4,6-bis(trifluoromethyl)-1,3,5-triazin-2-yl]-6-chloro-1-(2,3-difluoro-4-methylphenyl)-2,3,4,9-tetrahydro-1H-pyrido[3,4-b]indole]
